The values that follow come from ChEMBL document CHEMBL4602671, “Modified Eremophilanes from Parasenecio hastatus and Their Neuroprotective Activities” (J Nat Prod, 2020).

The subject of series [1] is SH-SY5Y. Nature of the series: Neuroprotective activity in human SH-SY5Y cells assessed as reduction in H2O2-induced cell death at 10 uM preincubated for 1 hr followed by H2O2 addition and measured after 4 hrs by MTT assay. Format: functional, cell-based.
The test system of series [2] is SH-SY5Y. Description: Neuroprotective activity in human SH-SY5Y cells assessed as reduction in H2O2-induced cell death at 100 uM preincubated for 1 hr followed by H2O2 addition and measured after 4 hrs by MTT assay. It counts as functional, cell-based.
Series [3] has as its system SH-SY5Y. Description: Neuroprotective activity in human SH-SY5Y cells assessed as reduction in H2O2-induced cell death at 1 uM preincubated for 1 hr followed by H2O2 addition and measured after 4 hrs by MTT assay relative to control. Format: functional. Also noted: scale not given: the % may be the effect or the level left.
The test system of series [4] is SH-SY5Y. Nature of the series: Cytotoxicity against human SH-SY5Y cells at 100 uM. Format: cell-based.

Activity calls are given as the source filed them. No cut-off for these calls is given here.

With `COCc1c2c(C)cccc2c(OC)c2occ(C)c12`, the outcome in the series with SH-SY5Y [1] and in the series with SH-SY5Y [2] was Active. Further, in the series with SH-SY5Y [3], the Activity is over 10%.
With `COc1c2c(c(C)c3c(C)coc13)[C@H](CO)[C@H](O)C=C2`, the outcome in the series with SH-SY5Y [1] and in the series with SH-SY5Y [2] was Active. In addition, the Activity with SH-SY5Y [3] is listed as over 10%.
Regarding `COc1c2c(c(C)c3c(C)coc13)[C@@H](C)[C@@H](O)C=C2`, the result in the series on SH-SY5Y [1] and in the series with SH-SY5Y [2] was Active. Besides, the Activity with SH-SY5Y [3] is over 10%.
`COc1c2c(c(C)c3c(C)coc13)[C@@H](C)[C@@H]1O[C@@H]1[C@H]2O`: the result in the series on SH-SY5Y [1] and with SH-SY5Y [2] was Active. For the same molecule, in the series with SH-SY5Y [3], the outcome was inactive.
Take `COc1c2c(c(C)c3c(C)coc13)[C@@H](C)[C@@H](O)CC2`: the result with SH-SY5Y [1] and with SH-SY5Y [2] was Active. In addition, the result in the series on SH-SY5Y [3] was inactive.
For the molecule `C/C=C(/C)C(=O)OCc1c(C(C)=O)c(O)c(OC)c2c1[C@@H](C)[C@@H](O)C=C2`, the result in the series with SH-SY5Y [1] and in the series with SH-SY5Y [2] was Active. In addition, in the series on SH-SY5Y [3], the result was inactive.
Turning to `COc1c(O)c(C(C)=O)c(C)c2c1C=CC[C@@H]2C`, the result in the series on SH-SY5Y [1] and in the series with SH-SY5Y [2] was Active. The result in the series with SH-SY5Y [3] was inactive.
On to `CCOCc1c2c(C)cccc2c(OC)c2occ(C)c12`, for which the outcome with SH-SY5Y [1] and in the series on SH-SY5Y [2] was Active. Further, the result in the series with SH-SY5Y [3] was inactive.
With `COc1c2cccc(C)c2c(C)c2c(C)coc12`, the outcome with SH-SY5Y [1] and in the series with SH-SY5Y [2] was Active. Moreover, the Activity with SH-SY5Y [3] was over 10%.
Turning to `Cc1cccc2c1[C@@](C)(O)c1c(C)coc1C2=O`, the result with SH-SY5Y [1] and in the series on SH-SY5Y [3] was Active. In addition, the Activity entry in the series on SH-SY5Y [4] was “Toxic”.
Take `COC[C@@]1(O)c2c(C)cccc2C(=O)c2occ(C)c21`: the Activity entry with SH-SY5Y [4] was “Toxic”. Moreover, in the series with SH-SY5Y [3], the outcome was Active.
`Cc1c(C)c2c(c(C)c1O)CCC(C)(C(=O)O)O2` (stereo not given): the outcome in the series with SH-SY5Y [3] was inactive.
Turning to `C/C=C(/C)C(=O)OC[C@@H]1c2c(c(OC)c3occ(C)c3c2C)C=C[C@@H]1O`, the outcome in the series with SH-SY5Y [1] and with SH-SY5Y [2] was Active. In addition, the Activity in the series on SH-SY5Y [3] was over 10%.
As for `Cc1cccc2c1C(=O)c1c(C)coc1C2=O`, the outcome in the series with SH-SY5Y [1] and in the series on SH-SY5Y [2] was Active. Moreover, the result with SH-SY5Y [3] was inactive.
For `COc1c(O)c(C(C)=O)c(C)c2c(C)cccc12`, the result with SH-SY5Y [1] and in the series with SH-SY5Y [2] was Active. Besides, the result with SH-SY5Y [3] was inactive.
Regarding `Cc1coc2c1[C@](C)(O)c1c(ccc(O)c1C)C2=O`, the result in the series with SH-SY5Y [1] and with SH-SY5Y [3] was Active. The Activity entry with SH-SY5Y [4] is recorded as “Toxic”.
On to `COc1c(O)c(C(C)=O)c(C)c2c1C=C[C@H](O)[C@@H]2C`, for which the outcome in the series with SH-SY5Y [1] and in the series with SH-SY5Y [2] was Active. The result with SH-SY5Y [3] was inactive.
`C/C=C(/C)C(=O)OC[C@H]1c2c(c(OC)c3occ(C)c3c2C)C=C[C@H]1OC`: the outcome in the series with SH-SY5Y [1] and in the series with SH-SY5Y [2] was Active. In addition, the Activity with SH-SY5Y [3] was over 10%.
`COC[C@H]1c2c(c(OC)c3occ(C)c3c2C)C=C[C@H]1O`: the outcome with SH-SY5Y [1] and in the series on SH-SY5Y [2] was Active. Moreover, in the series with SH-SY5Y [3], the Activity is recorded as over 10%.
`COc1c2cccc(C)c2cc2c(C)coc12`: the outcome in the series on SH-SY5Y [1] and in the series with SH-SY5Y [2] was Active. In addition, in the series on SH-SY5Y [3], the result was inactive.
On to `COc1c2cccc(C)c2c(CO)c2c(C)coc12`, for which the result in the series on SH-SY5Y [1] and with SH-SY5Y [2] was Active. Also, the outcome with SH-SY5Y [3] was inactive.
